Measurements reported in patent US20210030714A1, “COMPOUNDS FOR USE IN THE TREATMENT OF BRAIN DISEASES” (UNIVERSITA DEGLI STUDI DI ROMA "LA SAPIENZA", priority 2018, published 2021).
Entries after “also recorded” stand apart in the source; their conditions may differ.

Tests used:
[1] = tested on: GL261 murine glioma cells; assay: GL261 cell growth assay (MTT salt); type: cell-based; details: 5 μM GlaB, in vitro, starting from 48 h of treatment, N=3, p<0.001
Method: The GL261 murine glioma cells (Leibniz-Institute DMSZ, ACC802) are grown in an incubator at 37° C. and 5% CO2 in a culture medium containing D-MEM (GIBCO), 20% fetal bovine serum (GIBCO), antibiotics (100 IU/ml penicillin G, 100 μg/ml streptomycin, 2.5 μg/ml amphotericin B), 2 mM glutamine and 1 mM pyruvate sodium.
GL261 murine glioma cells were seeded in culture medium in 96-well plates (5000 cells/well). After 4 h they were treated with 5 μM GlaB (C. Ingallina, P. M. Costa, F. Ghirga, R. Klippstein, J. T. Wang, S. Berardozzi, N. Hodgins, P. Infante, S. M. Pollard, B. Botta, K. T. Al-Jamal. Polymeric glabrescione B nanocapsules for passive targeting of Hedgehog-dependent tumor therapy in vitro. Nanomedicine, (2017), 12(7), 711-728. DOI: 10.2217/nnm-2016-0388) or the vehicle in which it is dissolved (DMSO) and every 24 h for three days their growth was evaluated using the dehydrogenation method of MTT salt (3-(4,5-dimetiltiazol-2-yl)-2,5-diphenyltetrazolium bromide, Sigma-Aldrich). The MTT salt was added to each well containing culture medium at the concentration of 0.5 mg/ml, and after 2 h of incubation at 37° C., cell growth was measured by measuring the spectrophotometer, at a wavelength of 570 nm, the absorbance values related to the amount of MTT salt transformed into formazan (insoluble violet-colored salt) simultaneously by live control cells and cells treated with GlaB.

[2] = tested on: murine glioma GL261 cells; assay: Orthotopic GL261 glioma in mice, tumor volume (procedure A); type: in vivo, mice (C57BL/6); details: for tumor volume: every two days, N=7, vehicle ethanol:2-hydroxypropyl-beta-cyclodextrin 1:5
Method: Male wild type (C57BL/6) mice were inoculated with murine glioma cells (GL261, Leibniz-Institute DMSZ, ACC802) at the age of 8 weeks (animals weighing an average weight of 22 g). After being anesthetized by intraperitoneal injection of 50 mg/kg Zoletil anaesthetic (combination of tiletamine hypochloride and zolazepam hypochloride) associated with 10 mg/kg Rompun (xylazine), the animals were subjected to orthotopic injection (subcortical/striatum, […] anteroposterior, −2 mm lateral to the bregma) of GL261 cells (1×10^5 cells per mouse) using a stereotaxic apparatus to accurately and reproducibly reach the right striatal region. The cells, resuspended in 5 μl of phosphate buffer, were injected by the use of a Hamilton syringe connected to the stereotaxic apparatus.
GlaB dissolved in the vehicle constituted by ethanol (Sigma-Aldrich #51976): 2-hydroxypropyl-beta-cyclodextrin (Sigma-Aldrich #C0926) solution (10% (w/v) in H2O) in a 1:5 volume ratio was administered by intraperitoneal injections (ip, 35 mg/kg) and intranasally (in, 4.4 mg/kg), every two days after 7 days from the implantation of tumor cells for a total of 6 days of treatment. Intranasal administration was performed through the so-called “snort delivery”: drops of the medicament were sniffed by the animal, anesthetized with 2.5% Isofluorane, until reaching the upper nasal cavity.
The day after the last administration of GlaB, mice were perfused with phosphate buffer and then 4% PFA and their brain isolated, further fixed and frozen. After about 48 h each frozen brain was cut into subsequent coronal slices, 20 μm thick, collected at 100 μm intervals. The determination of tumor volume was performed by histological staining (hematoxylin and eosin) of the brain slices: the tumor mass is recognizable because it has a darker color compared to the remaining healthy tissue. The tumor volume is calculated through analysis of images obtained under a phase contrast microscope (ECLIPSE Ti-S, Nikon) using commercial software released in the public domain (ImageJ, National Institutes of Health of the United States) able to measure the tumor area in each slice, necessary for volume calculation.

[3] = GlaB brain level concentration by HPLC-ESI-MS after intranasal administration; type: in vivo, mice
Method: For HPLC analysis, mice were treated as above and sacrificed two hours post one single nasal administration; brains were collected and frozen (−80° C.) until use.
HPLC analyses were performed on brain samples from mice treated with GlaB/PEG-Cholane. The brain sample (500 mg), previously stored at −80° C. for 24 hours, was homogenized with 1 mL of a Phosphate Buffered Saline solution, PBS, using an ultrasound probe. A solution of ZnSO4 (0.1 M in H2O, 1 mL) and acetonitrile (1 mL) were added to the mixture, which was further homogenized with ultrasound for 15 minutes. Subsequently, the brain homogenate was stirred for 1 hour at room temperature and was then centrifuged at 3000 g for 5 min at T=4° C. The supernatant was collected. The following procedure to obtain a brain extract was repeated twice. Acetonitrile (1 mL) was added to the brain residue, stirred for 30 minutes at room temperature, then centrifuged at 3000 g for 5 min at T=4° C. and the supernatant collected. Brain extracts samples were centrifuged for five minutes at 5000 rpm and 20 μL of supernatant injected into the HPLC without further treatments.
The HPLC chromatographic system used was an UltiMate 3000 RS system (Thermo Fisher Dionex Sunnyvale, Calif.), equipped with an UltiMate 3000 LPG-3400RS Low Pressure Mixing Biocompatible Gradient Pump, an in-line split-loop well plate sampler, a thermostated column ventilated compartment (temperature range: 5-110° C.) and a diode array detector (UltiMate 3000 DAD-3000RS Rapid Separation Diode Array Detector, up to 200 Hz acquisition rate) with a low dispersion 13 μL flow cell. […]
Calibration standards ranged from 0.128 to 8.2 μg/mL for UV curve (y=0.2574x−0.2042, R2=0.9997) with a Limit of Quantitation, LOQ, (defined for a signal-to-noise ratio >10) of 4.1 ng on column, whereas calibration curve ranged 0.128-8.2 μg/ml for MS (y=11176x−1505.9) showing a correlation coefficient (r^2) equal to 0.9991.
A known amount (0.5 μg/mL) of the GlaB analyte (a spike) was added to treated brain sample. The samples and the samples plus spike were then analyzed. […]

- concentration at 2 h ([3]; C57BL/6, mouse, brain, other: nasal administration (intranasal), 1.44 mg/Kg, mice, two hours post one single nasal administration of GlaB/PEG-Cholane, read-out: estimated brain level concentration): 3600 ng/g
- GlaB peak in extract ion chromatogram of brain extract (drug reaches brain) ([3]; intranasally GlaB/PEG-Cholane treated mice vs control PEG-Cholane treated mice): presence of GlaB peak
- GlaB quantified in brain extract, amount on column ([3]; mice, two hours post one single nasal administration of GlaB/PEG-Cholane, HPLC-MS SIM m/z 451): 6 ng on column
Compound: COc1cc(OC)c2c(=O)c(-c3ccc(OCC=C(C)C)c(OCC=C(C)C)c3)coc2c1 [GlaB, Glabrescione B]
- growth of GL261 tumor cells (MTT absorbance) compared to vehicle (DMSO) [1]: reduce their growth capacity; also recorded: significant reduction
- tumor volume reduction ([2]; intranasal formulation in ethanol:2-hydroxypropyl-beta-cyclodextrin solution (1:5 by volume), 4.4 mg/kg): about 70%
- glioma volume in vivo compared to control solution ([2]; intranasal, 4.4 mg/kg): significantly reduce glioma volume
- tumor volume ([2]; intranasal, 4.4 mg/kg): 0.21 mm³
- glioma volume in vivo compared to control solution ([2]; intraperitoneal, 35 mg/kg): significantly reduce glioma volume
- tumor volume ([2]; intraperitoneal, 35 mg/kg): 0.48 mm³
